{"source": "paper PMC6934184", "about": "“Selective DNA-PKcs inhibition extends the therapeutic index of localized radiotherapy and chemotherapy” (The Journal of Clinical Investigation, 2019)", "target": "T1, CAMK2D (CaMKII delta) (Homo sapiens, UniProt Q13557)", "T1 construct": "purchased Thermo Fisher Scientific (Life Technologies) SelectScreen", "T1 sequence (Q13557 whole entry)": "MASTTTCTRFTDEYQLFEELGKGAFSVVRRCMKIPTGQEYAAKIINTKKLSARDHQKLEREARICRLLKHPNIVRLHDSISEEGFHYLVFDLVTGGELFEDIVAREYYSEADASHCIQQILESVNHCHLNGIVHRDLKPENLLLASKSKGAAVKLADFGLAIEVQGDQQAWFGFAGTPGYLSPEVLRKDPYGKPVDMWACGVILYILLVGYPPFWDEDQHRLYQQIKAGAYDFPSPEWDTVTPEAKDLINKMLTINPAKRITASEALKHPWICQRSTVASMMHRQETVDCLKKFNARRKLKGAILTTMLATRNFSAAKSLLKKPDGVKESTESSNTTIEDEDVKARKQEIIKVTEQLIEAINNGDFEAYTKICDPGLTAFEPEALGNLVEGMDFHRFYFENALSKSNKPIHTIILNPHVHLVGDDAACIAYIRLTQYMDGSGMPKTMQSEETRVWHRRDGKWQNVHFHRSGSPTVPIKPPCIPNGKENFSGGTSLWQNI", "assay": "SelectScreen Z'LYTE", "format": "biochemical", "how_it_was_run": "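Percent values come from Thermo SelectScreen profiling of NU5455, combining activity and binding assays. CSF1R was run in Z'LYTE format at Km app ATP, and CAMK1 in Adapta format with ATP listed at 10.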"}
{"smiles": "CN(C(=O)CN1CCOCC1)c1ccc2sc3c(-c4cccc5c(=O)cc(N6CC7CCC(C6)O7)oc45)cccc3c2c1", "note": "[NU5455]", "values": [{"measurement": "inhibition at 1 µM", "value": 9.3, "unit": "%"}]}
